Experimental data: patent US20250026721A1, “COMPOUNDS AND METHODS FOR MODULATING RAS-PI3K” (Vividion Therapeutics, Inc., priority 2023, published 2025)

Legend:
PIK3CA = biological target: T1, PIK3CA (Homo sapiens, UniProt P42336); experiment: In vitro ELISA target engagement assay for PIK3CA in Jurkat cellular lysate (competition with PIK3CA Biotin Probe); assay type: binding; settings: 1 hour at rt, then 500 nM PIK3CA Biotin Probe, read-out: Elisa Target Engagement Assay (TE50)
T1 construct: endogenous in cells; host or cells: Jurkat cell lysate
T1 sequence (P42336 whole entry): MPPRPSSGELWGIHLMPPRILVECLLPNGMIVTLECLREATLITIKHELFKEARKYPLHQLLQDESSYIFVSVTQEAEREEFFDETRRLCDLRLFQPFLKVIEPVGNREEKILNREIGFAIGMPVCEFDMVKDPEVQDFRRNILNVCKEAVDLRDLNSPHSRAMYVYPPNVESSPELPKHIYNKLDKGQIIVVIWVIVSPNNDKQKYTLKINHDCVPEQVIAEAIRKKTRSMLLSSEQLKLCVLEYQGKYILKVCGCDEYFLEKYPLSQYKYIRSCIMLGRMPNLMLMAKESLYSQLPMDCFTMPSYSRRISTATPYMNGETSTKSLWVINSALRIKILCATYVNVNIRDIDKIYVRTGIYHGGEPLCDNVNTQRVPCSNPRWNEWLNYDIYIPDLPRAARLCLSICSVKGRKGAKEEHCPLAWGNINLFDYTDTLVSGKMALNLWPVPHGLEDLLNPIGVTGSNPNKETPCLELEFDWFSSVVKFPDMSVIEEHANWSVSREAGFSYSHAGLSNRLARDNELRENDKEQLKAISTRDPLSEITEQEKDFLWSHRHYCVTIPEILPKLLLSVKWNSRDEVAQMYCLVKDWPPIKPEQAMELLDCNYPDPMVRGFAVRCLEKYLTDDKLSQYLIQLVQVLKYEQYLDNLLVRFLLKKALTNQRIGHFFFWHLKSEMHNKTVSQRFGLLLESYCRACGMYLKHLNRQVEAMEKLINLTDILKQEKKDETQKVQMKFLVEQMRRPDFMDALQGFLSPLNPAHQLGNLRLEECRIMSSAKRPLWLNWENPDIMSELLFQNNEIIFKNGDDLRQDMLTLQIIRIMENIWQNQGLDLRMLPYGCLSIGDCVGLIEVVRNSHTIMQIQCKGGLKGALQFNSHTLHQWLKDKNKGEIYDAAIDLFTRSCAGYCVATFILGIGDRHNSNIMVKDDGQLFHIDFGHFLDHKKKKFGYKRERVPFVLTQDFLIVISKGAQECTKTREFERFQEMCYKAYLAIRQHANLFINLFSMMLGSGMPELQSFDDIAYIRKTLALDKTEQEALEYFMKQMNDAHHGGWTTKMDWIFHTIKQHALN
T1 sequence (P27986 whole entry partner): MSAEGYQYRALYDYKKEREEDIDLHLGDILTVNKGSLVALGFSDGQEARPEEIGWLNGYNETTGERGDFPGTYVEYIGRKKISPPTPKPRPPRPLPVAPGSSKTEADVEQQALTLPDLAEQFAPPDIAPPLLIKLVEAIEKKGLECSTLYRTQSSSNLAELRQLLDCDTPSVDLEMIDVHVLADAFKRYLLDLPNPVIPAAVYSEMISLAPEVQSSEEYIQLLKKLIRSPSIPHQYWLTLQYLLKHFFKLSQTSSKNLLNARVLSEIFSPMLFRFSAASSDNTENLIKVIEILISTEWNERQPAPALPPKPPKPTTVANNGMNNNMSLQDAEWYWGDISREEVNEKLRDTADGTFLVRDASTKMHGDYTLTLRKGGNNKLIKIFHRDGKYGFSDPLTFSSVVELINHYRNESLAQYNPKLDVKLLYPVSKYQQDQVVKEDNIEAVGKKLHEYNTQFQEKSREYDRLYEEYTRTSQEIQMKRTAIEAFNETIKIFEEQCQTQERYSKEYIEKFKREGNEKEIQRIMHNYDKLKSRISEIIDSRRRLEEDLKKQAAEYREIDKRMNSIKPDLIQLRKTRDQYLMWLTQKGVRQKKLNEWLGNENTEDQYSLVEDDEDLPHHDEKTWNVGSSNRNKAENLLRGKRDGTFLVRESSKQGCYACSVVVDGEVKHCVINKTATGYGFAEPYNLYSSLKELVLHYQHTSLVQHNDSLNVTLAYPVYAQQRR
Procedure, shortened: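 Jurkat lysate from sonicated frozen cells was preincubated 1 h at rt with serially diluted compound up to 200 μM, then labelled 1 h at rt with PIK3CA biotin probe at 500 nM final. Probe-bound PIK3CA was captured on antibody-coated plates and detected with Neutravidin-HRP luminescence; TE50 derived from the dose response.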

PIK3CA_C242 = biological target: T2, PIK3CA_C242 (Homo sapiens, UniProt P42336); experiment: Proteomic TE50 (IA-DTB / TMT mass spectrometry) in Jurkat cell lysate; assay type: binding; settings: 1 hour at rt, 7-point dose response
T2 construct: endogenous in cells; host or cells: Jurkat cell lysate
T2 sequence (P42336 whole entry): as the sequence (P42336 whole entry) above
T2 sequence (P27986 whole entry partner): as the sequence (P27986 whole entry partner) above
Procedure, shortened: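 Jurkat lysate (500 μg) treated with compound (7-point, 1:5 dilutions) for 1 h at rt, then labelled with 200 μM IA-DTB for 1 h. After digestion and streptavidin enrichment, the C242 peptide was quantified by targeted MS3 TMT. TE50 was derived from reporter-ion S/N dose-response curves.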

| IC50 (PIK3CA) | IC50 (PIK3CA_C242) | SMILES |
| --- | --- | --- |
| 280 nM | 430 nM | C[C@H](/C=C\S(C)(=O)=O)NC(=O)C1(F)CCN(S(=O)(=O)c2ccc(N(C)C)cc2-c2ccccc2)CC1 [Compound 91, (R,Z)-1-((5-(dimethylamino)-[1,1′-biphenyl]-2-yl)sulfonyl)-4-fluoro-N-(4-(methylsulfonyl)but-3-en-2-yl)piperidine-4-carboxamide] |
| 130 nM | 139 nM | C[C@H](/C=C\S(C)(=O)=O)NC(=O)C1(F)CCN(S(=O)(=O)c2ccc(N(C)C)cc2-c2ccccc2Cl)CC1 [Compound 92, (R,Z)-1-((2′-chloro-5-(dimethylamino)-[1,1′-biphenyl]-2-yl)sulfonyl)-4-fluoro-N-(4-(methylsulfonyl)but-3-en-2-yl)piperidine-4-carboxamide] |
| 150 nM | 75.5 nM | Cc1ccccc1-c1cc(N(C)C)ccc1S(=O)(=O)N1CCC(F)(C(=O)N[C@H](C)/C=C\S(C)(=O)=O)CC1 [Compound 93, (R,Z)-1-((5-(dimethylamino)-2′-methyl-[1,1′-biphenyl]-2-yl)sulfonyl)-4-fluoro-N-(4-(methylsulfonyl)but-3-en-2-yl)piperidine-4-carboxamide] |
| 99 nM | 96 nM | CC#Cc1cccc(-c2cc(Cl)ccc2S(=O)(=O)N2CCC(F)(C(=O)N[C@@H](C)/C=C\S(C)(=O)=O)CC2)c1 [Compound 100, (S,Z)-1-((5-chloro-3′-(prop-1-yn-1-yl)-[1,1′-biphenyl]-2-yl)sulfonyl)-4-fluoro-N-(4-(methylsulfonyl)but-3-en-2-yl)piperidine-4-carboxamide] |
| 730 nM | 610 nM | CCOc1ccc(S(=O)(=O)N2CCC(F)(C(=O)N[C@H](C)/C=C\S(C)(=O)=O)CC2)c(-c2ccccc2C)c1 [Compound 102, (R,Z)-1-((5-ethoxy-2′-methyl-[1,1′-biphenyl]-2-yl)sulfonyl)-4-fluoro-N-(4-(methylsulfonyl)but-3-en-2-yl)piperidine-4-carboxamide] |
| 820 nM | 310 nM | Cc1ccccc1-c1cc(OC2CC2)ccc1S(=O)(=O)N1CCC(F)(C(=O)N[C@H](C)/C=C\S(C)(=O)=O)CC1 [Compound 106, (R,Z)-1-((5-cyclopropoxy-2′-methyl-[1,1′-biphenyl]-2-yl)sulfonyl)-4-fluoro-N-(4-(methylsulfonyl)but-3-en-2-yl)piperidine-4-carboxamide] |
| 200 nM | 320 nM | C=Cc1ccc(S(=O)(=O)N2CCC(F)(C(=O)N[C@H](C)/C=C\S(C)(=O)=O)CC2)c(-c2ccccc2Cl)c1 [Compound 107, (R,Z)-1-((2′-chloro-5-vinyl-[1,1′-biphenyl]-2-yl)sulfonyl)-4-fluoro-N-(4-(methylsulfonyl)but-3-en-2-yl)piperidine-4-carboxamide] |
| 360 nM | 280 nM | C=C(C)c1ccc(S(=O)(=O)N2CCC(F)(C(=O)N[C@H](C)/C=C\S(C)(=O)=O)CC2)c(-c2ccccc2Cl)c1 [Compound 109, (R,Z)-1-((2′-chloro-5-(prop-1-en-2-yl)-[1,1′-biphenyl]-2-yl)sulfonyl)-4-fluoro-N-(4-(methylsulfonyl)but-3-en-2-yl)piperidine-4-carboxamide] |
| 830 nM | 363 nM | C=C(C)c1ccc(S(=O)(=O)N2CCC(F)(C(=O)N[C@H](C)/C=C\S(C)(=O)=O)CC2)c(-c2ccccc2C)c1 [Compound 110, (R,Z)-4-fluoro-1-((2′-methyl-5-(prop-1-en-2-yl)-[1,1′-biphenyl]-2-yl)sulfonyl)-N-(4-(methylsulfonyl)but-3-en-2-yl)piperidine-4-carboxamide] |
| 320 nM | 210 nM | CCc1ccc(S(=O)(=O)N2CCC(F)(C(=O)N[C@H](C)/C=C\S(C)(=O)=O)CC2)c(-c2ccccc2Cl)c1 [Compound 111, (R,Z)-1-((2′-chloro-5-ethyl-[1,1′-biphenyl]-2-yl)sulfonyl)-4-fluoro-N-(4-(methylsulfonyl)but-3-en-2-yl)piperidine-4-carboxamide] |
| 780 nM | 660 nM | CCc1ccc(S(=O)(=O)N2CCC(F)(C(=O)N[C@H](C)/C=C\S(C)(=O)=O)CC2)c(-c2ccccc2)c1 [Compound 112, (R,Z)-1-((5-ethyl-[1,1′-biphenyl]-2-yl)sulfonyl)-4-fluoro-N-(4-(methylsulfonyl)but-3-en-2-yl)piperidine-4-carboxamide] |
| 610 nM | 680 nM | CC(C)c1ccc(S(=O)(=O)N2CCC(F)(C(=O)N[C@H](C)/C=C\S(C)(=O)=O)CC2)c(-c2ccccc2Cl)c1 [Compound 114, (R,Z)-1-((2′-chloro-5-isopropyl-[1,1′-biphenyl]-2-yl)sulfonyl)-4-fluoro-N-(4-(methylsulfonyl)but-3-en-2-yl)piperidine-4-carboxamide] |
| 520 nM | 410 nM | Cc1ccccc1-c1cc(C(C)C)ccc1S(=O)(=O)N1CCC(F)(C(=O)N[C@H](C)/C=C\S(C)(=O)=O)CC1 [Compound 115, (R,Z)-4-fluoro-1-((5-isopropyl-2′-methyl-[1,1′-biphenyl]-2-yl)sulfonyl)-N-(4-(methylsulfonyl)but-3-en-2-yl)piperidine-4-carboxamide] |
| 340 nM | 261 nM | Cc1ccccc1-c1cc(N2CCC2)ccc1S(=O)(=O)N1CCC(F)(C(=O)N[C@H](C)/C=C\S(C)(=O)=O)CC1 [Compound 116, (R,Z)-1-((5-(azetidin-1-yl)-2′-methyl-[1,1′-biphenyl]-2-yl)sulfonyl)-4-fluoro-N-(4-(methylsulfonyl)but-3-en-2-yl)piperidine-4-carboxamide] |
| 830 nM | 810 nM | C[C@H](/C=C\S(C)(=O)=O)NC(=O)C1(F)CCN(S(=O)(=O)c2ccc(N3CCCC3)cc2-c2ccccc2)CC1 [Compound 117, (R,Z)-4-fluoro-N-(4-(methylsulfonyl)but-3-en-2-yl)-1-((5-(pyrrolidin-1-yl)-[1,1′-biphenyl]-2-yl)sulfonyl)piperidine-4-carboxamide] |
| 670 nM | 460 nM | C[C@H](/C=C\S(C)(=O)=O)NC(=O)C1(F)CCN(S(=O)(=O)c2ccc(N3CCCC3)cc2-c2ccccc2Cl)CC1 [Compound 119, (R,Z)-1-((2′-chloro-5-(pyrrolidin-1-yl)-[1,1′-biphenyl]-2-yl)sulfonyl)-4-fluoro-N-(4-(methylsulfonyl)but-3-en-2-yl)piperidine-4-carboxamide] |
| 1000 nM | 880 nM | C[C@H](/C=C\S(C)(=O)=O)NC(=O)C1(F)CCN(S(=O)(=O)c2ccc(N3CCOCC3)cc2-c2ccccc2Cl)CC1 [Compound 121, (R,Z)-1-((2′-chloro-5-morpholino-[1,1′-biphenyl]-2-yl)sulfonyl)-4-fluoro-N-(4-(methylsulfonyl)but-3-en-2-yl)piperidine-4-carboxamide] |
| 610 nM | 490 nM | Cc1ccccc1-c1cc(N2CCOCC2)ccc1S(=O)(=O)N1CCC(F)(C(=O)N[C@H](C)/C=C\S(C)(=O)=O)CC1 [Compound 122, (R,Z)-4-fluoro-1-((2′-methyl-5-morpholino-[1,1′-biphenyl]-2-yl)sulfonyl)-N-(4-(methylsulfonyl)but-3-en-2-yl)piperidine-4-carboxamide] |
| 820 nM | 63 nM | C[C@H](/C=C\S(C)(=O)=O)NC(=O)C1(F)CCN(S(=O)(=O)c2ccc(N3CCCC3)cc2-c2ccc(F)cc2Cl)CC1 [Compound 123, (R,Z)-1-((2′-chloro-4′-fluoro-5-(pyrrolidin-1-yl)-[1,1′-biphenyl]-2-yl)sulfonyl)-4-fluoro-N-(4-(methylsulfonyl)but-3-en-2-yl)piperidine-4-carboxamide] |
| 320 nM | 150 nM | C[C@H](/C=C\S(C)(=O)=O)NC(=O)C1(F)CCN(S(=O)(=O)c2ccc(N3CCC3)cc2-c2ccccc2Cl)CC1 [Compound 124, (R,Z)-1-((5-(azetidin-1-yl)-2′-chloro-[1,1′-biphenyl]-2-yl)sulfonyl)-4-fluoro-N-(4-(methylsulfonyl)but-3-en-2-yl)piperidine-4-carboxamide] |
| 430 nM | 816 nM | COCc1cccc(-c2cc(Cl)ccc2S(=O)(=O)N2CCC(F)(C(=O)N[C@@H](C)/C=C\S(C)(=O)=O)CC2)c1 [Compound 126, (S,Z)-1-((5-chloro-3′-(methoxymethyl)-[1,1′-biphenyl]-2-yl)sulfonyl)-4-fluoro-N-(4-(methylsulfonyl)but-3-en-2-yl)piperidine-4-carboxamide] |
| 1100 nM | 960 nM | CO/N=C/c1cccc(-c2cc(Cl)ccc2S(=O)(=O)N2CCC(F)(C(=O)N[C@@H](C)/C=C\S(C)(=O)=O)CC2)c1 [Compound 127, 1-((5-chloro-3′-((E)-(methoxyimino)methyl)-[1,1′-biphenyl]-2-yl)sulfonyl)-4-fluoro-N-((S,Z)-4-(methylsulfonyl)but-3-en-2-yl) piperidine-4-carboxamide] |
| 524 nM | 468 nM | C[C@H](/C=C\S(C)(=O)=O)NC(=O)C1(F)CCN(S(=O)(=O)c2ccc(C3COC3)cc2-c2ccccc2Cl)CC1 [Compound 132, (R,Z)-1-((2′-chloro-5-(oxetan-3-yl)-[1,1′-biphenyl]-2-yl)sulfonyl)-4-fluoro-N-(4-(methylsulfonyl)but-3-en-2-yl)piperidine-4-carboxamide] |
| 87.2 nM | 120 nM | C[C@H](/C=C/C(=O)N1CC(F)(F)C1)NC(=O)C1(F)CCN(S(=O)(=O)c2ccc(Br)cc2-c2ccccc2Cl)CC1 [Compound 135, (R,E)-1-((5-bromo-2′-chloro-[1,1′-biphenyl]-2-yl)sulfonyl)-N-(5-(3,3-difluoroazetidin-1-yl)-5-oxopent-3-en-2-yl)-4-fluoropiperidine-4-carboxamide] |
